The test relates to CD2F1 mice, L1210 leukemia ip, survival T/C. Briefly: NCI In Vivo Anticancer Drug Screen. Data for tumor model L1210 Leukemia (intraperitoneal) in CD2F1 (CDF1) mice. The following applies: higher = longer survival. The procedure, abridged:
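Transplantable tumor in mice; compound-treated vs vehicle-treated groups. Read-out = treated/control ratio of the measured endpoint.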

Setting [1] is: endpoint: mean survival time, dose: 12.5 mg/kg/injection, schedule: Q01DX009 (ip), vehicle: saline.
Setting [2] is: endpoint: mean survival time, dose: 25.0 mg/kg/injection, schedule: Q01DX009 (ip), vehicle: saline.
The mark [3] stands for this setting: endpoint: mean survival time, dose: 50.0 mg/kg/injection, schedule: Q01DX009 (ip), vehicle: saline.
Where [4] appears, read: endpoint: mean survival time, dose: 100.0 mg/kg/injection, schedule: Q01DX009 (ip), vehicle: saline.
Where [5] appears, read: endpoint: mean survival time, dose: 400.0 mg/kg/injection, schedule: Q01DX009 (ip), vehicle: saline.
Where [6] appears, read: endpoint: mean survival time, dose: 200.0 mg/kg/injection, schedule: Q01DX009 (ip), vehicle: saline with Tween-80.
[7] abbreviates: endpoint: mean survival time, dose: 100.0 mg/kg/injection, schedule: Q01DX001 (ip), vehicle: saline with Tween-80.
The mark [8] stands for this setting: endpoint: mean survival time, dose: 200.0 mg/kg/injection, schedule: Q01DX001 (ip), vehicle: saline with Tween-80.
[9] abbreviates: endpoint: mean survival time, dose: 400.0 mg/kg/injection, schedule: Q01DX001 (ip), vehicle: saline with Tween-80.

Values joined by “and” are separate entries in the source; they are usually repeats but may differ in a detail not shown here. Identical values can stand only once. Toxic doses and inconclusive results are not listed. Non-standard residues stand in square brackets, D forms with d. Residues, ends and D or L forms follow the SMILES beside them. *: point of attachment. Cbz = O=C(OCc1ccccc1)*; Abu = CC[CH](N)C(=O)O

With `[Cl][Pt+2][Cl].[NH-]c1ccc(F)c(Cl)c1.[NH-]c1ccc(F)c(Cl)c1`, the T/C reads like this: (endpoint: mean survival time, dose: 3.13 mg/kg/injection, schedule: Q04DX003 (ip), vehicle: distilled water + Tween-80) 108 % of control; (endpoint: mean survival time, dose: 6.25 mg/kg/injection, schedule: Q04DX003 (ip), vehicle: distilled water + Tween-80) 103 % of control; (endpoint: mean survival time, dose: 12.5 mg/kg/injection, schedule: Q04DX003 (ip), vehicle: distilled water + Tween-80) 110 % of control; (endpoint: mean survival time, dose: 25.0 mg/kg/injection, schedule: Q04DX003 (ip), vehicle: distilled water + Tween-80) 110 % of control; (endpoint: mean survival time, dose: 50.0 mg/kg/injection, schedule: Q04DX003 (ip), vehicle: distilled water + Tween-80) 110 % of control.

Take `CCN(C(=O)CCl)C(C)(C)C(SSSC(c1ccc(Cl)cc1)C(C)(C)N(CC)C(=O)CCl)c1ccc(Cl)cc1` (centres undefined): the T/C reads like this: under setting [1], 96 % of control; under setting [2], 102 % of control; under setting [3], 95 % of control and 106 % of control; under setting [4], 100 % of control.

Regarding `CCOP(=O)(OCC)c1ccccc1`, the T/C was 96 % of control (endpoint: mean survival time, dose: 100.0 mg/kg/injection, schedule: Q04DX002 (ip), vehicle: saline); 96 % of control (endpoint: mean survival time, dose: 200.0 mg/kg/injection, schedule: Q04DX002 (ip), vehicle: saline); 112 % of control (endpoint: mean survival time, dose: 400.0 mg/kg/injection, schedule: Q04DX002 (ip), vehicle: saline).

Consider `CC1(C)OC(=O)N(CO)C1=O`, for which the T/C under setting [1] is 100 % of control and 103 % of control; the T/C under setting [2] is 97 % of control and 102 % of control; the T/C under setting [3] is 100 % of control and 102 % of control; the T/C under setting [4] was 114 % of control and 111 % of control; the T/C (endpoint: mean survival time, dose: 200.0 mg/kg/injection, schedule: Q01DX009 (ip), vehicle: saline) was 120 % of control and 111 % of control; the T/C under setting [5] was 91 % of control and 97 % of control.

On to `Cc1c2ccccc2c(CSCC(N)C(=O)O)c2ccccc12` (centres undefined), for which the T/C by setting is: (endpoint: mean survival time, dose: 100.0 mg/kg/injection, schedule: Q04DX003 (ip), vehicle: saline with Tween-80) 89 % of control; (endpoint: mean survival time, dose: 200.0 mg/kg/injection, schedule: Q04DX003 (ip), vehicle: saline with Tween-80) 107 % of control; (endpoint: mean survival time, dose: 400.0 mg/kg/injection, schedule: Q04DX003 (ip), vehicle: saline with Tween-80) 98 % of control.

For `Cc1ccc(NC(=O)N(CCCl)N=O)cc1`, the T/C is 189 % of control (endpoint: mean survival time, dose: 9.0 mg/kg/injection, schedule: Q01DX015 (ip), vehicle: saline); 193 % of control (endpoint: mean survival time, dose: 15.0 mg/kg/injection, schedule: Q01DX015 (ip), vehicle: saline); 87 % of control (endpoint: mean survival time, dose: 25.0 mg/kg/injection, schedule: Q01DX015 (ip), vehicle: saline).

As for `N#C/C=C/C#N`, the T/C by setting is: (endpoint: mean survival time, dose: 0.15 mg/kg/injection, schedule: Q01DX009 (ip), vehicle: saline) 105 % of control; (endpoint: mean survival time, dose: 0.3 mg/kg/injection, schedule: Q01DX009 (ip), vehicle: saline) 102 % of control; (endpoint: mean survival time, dose: 0.6 mg/kg/injection, schedule: Q01DX009 (ip), vehicle: saline) 102 % of control.

Regarding `COC(OC(CO)C(O)S(=O)(=O)O)C(O)S(=O)(=O)O` (centres undefined), the T/C by setting is: (endpoint: mean survival time, dose: 50.0 mg/kg/injection, schedule: Q01DX001 (ip), vehicle: saline) 103 % of control; under setting [3], 124 % of control; (endpoint: mean survival time, dose: 50.0 mg/kg/injection, schedule: Q01DX009 (sc), vehicle: saline) 104 % of control; (endpoint: mean survival time, dose: 50.0 mg/kg/injection, schedule: Q03HX016 (ip), vehicle: saline) 115 % of control; (endpoint: mean survival time, dose: 100.0 mg/kg/injection, schedule: Q01DX001 (ip), vehicle: saline) 118 % of control; (endpoint: mean survival time, dose: 100.0 mg/kg/injection, schedule: Q01DX009 (oral), vehicle: saline) 105 % of control. The T/C is, setting by setting: (endpoint: mean survival time, dose: 100.0 mg/kg/injection, schedule: Q01DX009 (sc), vehicle: saline) 101 % of control; (endpoint: mean survival time, dose: 100.0 mg/kg/injection, schedule: Q03HX008 (ip), vehicle: saline) 160 % of control; (endpoint: mean survival time, dose: 100.0 mg/kg/injection, schedule: Q03HX016 (ip), vehicle: saline) 153 % of control; (endpoint: mean survival time, dose: 100.0 mg/kg/injection, schedule: Q08DX002 (ip), vehicle: saline) 109 % of control; (endpoint: mean survival time, dose: 200.0 mg/kg/injection, schedule: Q01DX009 (oral), vehicle: saline) 92 % of control; (endpoint: mean survival time, dose: 200.0 mg/kg/injection, schedule: Q01DX009 (sc), vehicle: saline) 101 % of control. For the same compound, the T/C reads like this: (endpoint: mean survival time, dose: 200.0 mg/kg/injection, schedule: Q08DX002 (ip), vehicle: saline) 120 % of control; under setting [5], 168 % of control; (endpoint: mean survival time, dose: 400.0 mg/kg/injection, schedule: Q01DX009 (oral), vehicle: saline) 94 % of control; (endpoint: mean survival time, dose: 400.0 mg/kg/injection, schedule: Q01DX009 (sc), vehicle: saline) 106 % of control; (endpoint: mean survival time, dose: 800.0 mg/kg/injection, schedule: Q01DX009 (oral), vehicle: saline) 94 % of control; (endpoint: mean survival time, dose: 800.0 mg/kg/injection, schedule: Q04DX003 (ip), vehicle: saline) 178 % of control.

In the case of `O=c1cn[nH]c2c(Cl)cccc12`, the T/C runs as follows: (endpoint: mean survival time, dose: 100.0 mg/kg/injection, schedule: Q01DX001 (ip), vehicle: carboxymethylcellulose (CMC)) 106 % of control; (endpoint: mean survival time, dose: 200.0 mg/kg/injection, schedule: Q01DX001 (ip), vehicle: carboxymethylcellulose (CMC)) 95 % of control.

`CC(=O)NCCc1ccccc1`: the T/C is 109 % of control (endpoint: mean survival time, dose: 100.0 mg/kg/injection, schedule: Q01DX009 (ip), vehicle: Klucel (hydroxypropylcellulose) (HPC)); 103 % of control (endpoint: mean survival time, dose: 100.0 mg/kg/injection, schedule: Q04DX003 (ip), vehicle: saline sonified); 102 % of control (endpoint: mean survival time, dose: 200.0 mg/kg/injection, schedule: Q01DX009 (ip), vehicle: Klucel (hydroxypropylcellulose) (HPC)); 109 % of control (endpoint: mean survival time, dose: 200.0 mg/kg/injection, schedule: Q04DX003 (ip), vehicle: saline sonified); 104 % of control (endpoint: mean survival time, dose: 400.0 mg/kg/injection, schedule: Q01DX009 (ip), vehicle: Klucel (hydroxypropylcellulose) (HPC)); 97 % of control (endpoint: mean survival time, dose: 400.0 mg/kg/injection, schedule: Q04DX003 (ip), vehicle: saline sonified).

Turning to `CCCCNP1(NCCCC)=NP(NCCCC)(NCCCC)=NP(NCCCC)(NCCCC)=NP(NCCCC)(NCCCC)=N1`, the T/C was 107 % of control (endpoint: median survival time, dose: 12.5 mg/kg/injection, schedule: Q01DX009 (ip), vehicle: saline with Tween-80); 107 % of control (endpoint: median survival time, dose: 25.0 mg/kg/injection, schedule: Q01DX009 (ip), vehicle: saline with Tween-80); 97 % of control (endpoint: median survival time, dose: 50.0 mg/kg/injection, schedule: Q01DX009 (ip), vehicle: saline with Tween-80).

In the case of `CCCC/C=C/COCC`, the T/C reads like this: (endpoint: mean survival time, dose: 50.0 mg/kg/injection, schedule: Q01DX009 (ip), vehicle: saline with Tween-80) 97 % of control; (endpoint: mean survival time, dose: 100.0 mg/kg/injection, schedule: Q01DX009 (ip), vehicle: saline with Tween-80) 94 % of control; under setting [6], 97 % of control.

Consider `CCC(NC(=O)OCc1ccccc1)C(=O)N1CCCC1C(=O)OC` (centres undefined) (Cbz-[Abu]-Pro-OMe; configuration not given here), for which the T/C was 103 % of control under setting [7], 104 % of control under setting [8] and 103 % of control under setting [9].

Take `O=S1(=O)CC(Cl)C(Cl)C1` (centres undefined): the T/C (endpoint: mean survival time, dose: 50.0 mg/kg/injection, schedule: Q04DX003 (ip), vehicle: alcohol) is 105 % of control.

For the compound `c1ccc(C2=C(c3ccccn3)N=c3ccccc3=c3ccccc3=N2)nc1`, the T/C was 101 % of control under setting [7], 111 % of control under setting [8] and 93 % of control under setting [9].

Consider `Cc1ccc(N=Nc2sc(N)nc2-c2cccc([N+](=O)[O-])c2)cc1`, for which the T/C is 89 % of control under setting [7] and 96 % of control under setting [8].

Regarding `CN(C)C(=O)N(CCCl)N=O`, the T/C is, setting by setting: (endpoint: mean survival time, dose: 16.0 mg/kg/injection, schedule: Q01DX001 (ip), vehicle: other) 176 % of control; (endpoint: mean survival time, dose: 20.0 mg/kg/injection, schedule: Q01DX001 (ip), vehicle: other) 306 % of control; (endpoint: mean survival time, dose: 32.0 mg/kg/injection, schedule: Q01DX001 (ip), vehicle: other) 570 % of control; (endpoint: mean survival time, dose: 40.0 mg/kg/injection, schedule: Q01DX001 (ip), vehicle: other) 318 % of control.

With `CC(=O)c1ccc(N=NC2C(=O)N(c3ccccc3)N=C2C)cc1` (centres undefined), the T/C is, setting by setting: under setting [6], 87 % of control; (endpoint: mean survival time, dose: 400.0 mg/kg/injection, schedule: Q01DX009 (ip), vehicle: saline with Tween-80) 95 % of control.

The record behind these values is PubChem BioAssay AID256 (DTP/NCI, 2004).
